Assay results: US10045981B2, “Selective kinase inhibitors” (JAKPHARM, LLC, priority 2015, dated 2018)
Where two headings read alike, the source gives them in different places.

Columns and labels:
[1] = Cytotoxicity Screening L929 Fibroblasts; assay type: cell-based; settings: mouse, read-out: 50% Maximal Effect Concentration (AC50)
From the text: The cytotoxicity screening panel included cell count, nuclear size, DNA structure, cell membrane permeability, mitochondrial mass, mitochondrial membrane potential, and cytochrome C release.

[2] = Human Liver Microsomes stability; assay type: in vitro ADME; settings: read-out: Human Liver Microsomes t½
[3] = molecular target: EGFR (L861Q) (Homo sapiens, UniProt P00533, L861Q); experiment: Exemplary Kinase Panel Analysis; assay type: biochemical; settings: 10 concentrations, 3-fold serial dilutions starting at 5 μM, duplicate
[4] = molecular target: EGFR (Homo sapiens, UniProt P00533); experiment: Exemplary Kinase Panel Analysis; assay type: biochemical; settings: 10 concentrations, 3-fold serial dilutions starting at 5 μM, duplicate
Protocol: Kinase Panel: These compounds were tested against 439 kinases. […]. […] The results are presented in Table 2 below, where empty cells indicate no inhibition or compound activity that could not be fit to an IC50 curve.

[5] = molecular target: EGFR (L858R, T790M) (Homo sapiens, UniProt P00533, L858R/T790M); experiment: Exemplary Kinase Panel Analysis; assay type: biochemical; settings: 10 concentrations, 3-fold serial dilutions starting at 5 μM, duplicate
[6] = molecular target: EGFR (d746-750) (Homo sapiens, UniProt P00533, DEL746-750); experiment: Exemplary Kinase Panel Analysis; assay type: biochemical; settings: 10 concentrations, 3-fold serial dilutions starting at 5 μM, duplicate
EGFR (d746-750), sequence (P00533 with tags, fused parts or gaps DEL746-750 limits assumed): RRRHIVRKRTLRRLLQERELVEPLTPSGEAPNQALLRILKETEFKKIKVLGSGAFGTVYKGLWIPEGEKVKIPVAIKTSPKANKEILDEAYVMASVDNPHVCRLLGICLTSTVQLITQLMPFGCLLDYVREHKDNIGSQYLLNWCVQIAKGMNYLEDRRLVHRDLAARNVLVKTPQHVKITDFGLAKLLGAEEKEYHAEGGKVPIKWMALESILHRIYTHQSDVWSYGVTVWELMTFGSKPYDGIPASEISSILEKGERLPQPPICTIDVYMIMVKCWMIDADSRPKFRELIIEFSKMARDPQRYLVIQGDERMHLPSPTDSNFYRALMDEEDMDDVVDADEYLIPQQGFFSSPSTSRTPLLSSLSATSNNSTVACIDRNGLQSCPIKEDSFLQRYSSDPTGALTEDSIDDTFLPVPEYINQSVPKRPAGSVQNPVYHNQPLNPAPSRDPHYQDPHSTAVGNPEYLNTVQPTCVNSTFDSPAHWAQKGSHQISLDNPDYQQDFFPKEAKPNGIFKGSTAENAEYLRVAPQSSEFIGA

EGFR (L858R, T790M), sequence (P00533 25-1210 T790M/L858R): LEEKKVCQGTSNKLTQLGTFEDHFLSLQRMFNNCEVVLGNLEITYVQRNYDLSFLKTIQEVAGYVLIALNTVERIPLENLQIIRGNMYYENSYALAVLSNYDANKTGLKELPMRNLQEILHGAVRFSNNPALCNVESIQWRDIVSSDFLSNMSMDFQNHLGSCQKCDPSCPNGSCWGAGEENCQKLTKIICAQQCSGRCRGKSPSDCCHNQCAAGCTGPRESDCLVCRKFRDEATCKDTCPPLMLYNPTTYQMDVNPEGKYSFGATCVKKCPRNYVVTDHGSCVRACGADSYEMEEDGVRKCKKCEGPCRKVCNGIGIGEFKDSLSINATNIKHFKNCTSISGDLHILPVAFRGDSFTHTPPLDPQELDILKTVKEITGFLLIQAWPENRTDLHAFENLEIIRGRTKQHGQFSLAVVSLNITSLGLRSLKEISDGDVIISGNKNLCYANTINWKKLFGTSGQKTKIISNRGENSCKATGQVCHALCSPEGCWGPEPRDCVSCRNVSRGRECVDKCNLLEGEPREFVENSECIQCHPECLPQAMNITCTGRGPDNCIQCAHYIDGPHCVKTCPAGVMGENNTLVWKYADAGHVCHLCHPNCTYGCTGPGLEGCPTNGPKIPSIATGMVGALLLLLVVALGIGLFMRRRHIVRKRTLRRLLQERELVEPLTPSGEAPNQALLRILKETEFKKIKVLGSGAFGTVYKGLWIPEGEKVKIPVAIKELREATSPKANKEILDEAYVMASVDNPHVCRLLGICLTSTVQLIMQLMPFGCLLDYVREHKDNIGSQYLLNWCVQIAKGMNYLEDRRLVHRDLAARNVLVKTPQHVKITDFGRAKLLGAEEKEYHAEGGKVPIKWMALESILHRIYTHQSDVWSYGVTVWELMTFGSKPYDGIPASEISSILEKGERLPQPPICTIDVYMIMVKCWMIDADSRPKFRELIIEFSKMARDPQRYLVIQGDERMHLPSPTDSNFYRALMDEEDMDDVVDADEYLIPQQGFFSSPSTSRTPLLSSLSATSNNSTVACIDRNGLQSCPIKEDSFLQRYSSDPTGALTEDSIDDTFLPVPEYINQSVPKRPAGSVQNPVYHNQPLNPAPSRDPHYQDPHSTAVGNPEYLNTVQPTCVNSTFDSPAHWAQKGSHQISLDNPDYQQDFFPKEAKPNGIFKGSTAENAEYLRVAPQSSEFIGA
EGFR (L861Q), sequence (P00533 25-1210 L861Q): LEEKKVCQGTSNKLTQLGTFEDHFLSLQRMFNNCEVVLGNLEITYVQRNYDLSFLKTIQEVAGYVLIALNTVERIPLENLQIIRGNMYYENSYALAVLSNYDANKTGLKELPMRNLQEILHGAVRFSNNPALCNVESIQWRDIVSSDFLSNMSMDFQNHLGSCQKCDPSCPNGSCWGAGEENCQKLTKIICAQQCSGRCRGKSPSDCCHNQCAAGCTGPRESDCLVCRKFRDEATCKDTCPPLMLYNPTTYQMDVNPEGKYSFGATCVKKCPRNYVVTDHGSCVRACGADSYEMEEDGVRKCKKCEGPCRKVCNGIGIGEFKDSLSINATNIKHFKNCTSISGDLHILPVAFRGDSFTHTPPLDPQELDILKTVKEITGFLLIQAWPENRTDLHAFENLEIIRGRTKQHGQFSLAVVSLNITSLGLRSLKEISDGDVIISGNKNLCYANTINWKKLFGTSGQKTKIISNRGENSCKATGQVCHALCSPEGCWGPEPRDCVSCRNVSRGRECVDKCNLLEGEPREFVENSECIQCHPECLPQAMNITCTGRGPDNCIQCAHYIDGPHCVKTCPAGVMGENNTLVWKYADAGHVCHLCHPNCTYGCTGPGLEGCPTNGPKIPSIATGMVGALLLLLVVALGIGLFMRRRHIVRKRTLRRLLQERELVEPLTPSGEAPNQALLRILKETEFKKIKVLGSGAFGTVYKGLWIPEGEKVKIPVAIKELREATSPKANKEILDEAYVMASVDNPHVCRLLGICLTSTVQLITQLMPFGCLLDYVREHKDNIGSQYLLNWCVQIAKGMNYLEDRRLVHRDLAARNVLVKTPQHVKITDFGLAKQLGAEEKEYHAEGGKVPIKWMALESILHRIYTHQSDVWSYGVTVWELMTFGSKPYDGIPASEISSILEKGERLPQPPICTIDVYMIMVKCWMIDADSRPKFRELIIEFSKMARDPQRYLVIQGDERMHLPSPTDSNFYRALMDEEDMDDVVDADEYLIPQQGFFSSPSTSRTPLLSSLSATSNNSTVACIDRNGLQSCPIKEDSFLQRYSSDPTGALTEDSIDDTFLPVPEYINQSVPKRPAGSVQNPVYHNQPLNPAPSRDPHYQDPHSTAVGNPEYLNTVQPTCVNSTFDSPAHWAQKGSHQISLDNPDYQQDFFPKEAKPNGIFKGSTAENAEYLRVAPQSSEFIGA
EGFR, sequence (P00533 25-1210): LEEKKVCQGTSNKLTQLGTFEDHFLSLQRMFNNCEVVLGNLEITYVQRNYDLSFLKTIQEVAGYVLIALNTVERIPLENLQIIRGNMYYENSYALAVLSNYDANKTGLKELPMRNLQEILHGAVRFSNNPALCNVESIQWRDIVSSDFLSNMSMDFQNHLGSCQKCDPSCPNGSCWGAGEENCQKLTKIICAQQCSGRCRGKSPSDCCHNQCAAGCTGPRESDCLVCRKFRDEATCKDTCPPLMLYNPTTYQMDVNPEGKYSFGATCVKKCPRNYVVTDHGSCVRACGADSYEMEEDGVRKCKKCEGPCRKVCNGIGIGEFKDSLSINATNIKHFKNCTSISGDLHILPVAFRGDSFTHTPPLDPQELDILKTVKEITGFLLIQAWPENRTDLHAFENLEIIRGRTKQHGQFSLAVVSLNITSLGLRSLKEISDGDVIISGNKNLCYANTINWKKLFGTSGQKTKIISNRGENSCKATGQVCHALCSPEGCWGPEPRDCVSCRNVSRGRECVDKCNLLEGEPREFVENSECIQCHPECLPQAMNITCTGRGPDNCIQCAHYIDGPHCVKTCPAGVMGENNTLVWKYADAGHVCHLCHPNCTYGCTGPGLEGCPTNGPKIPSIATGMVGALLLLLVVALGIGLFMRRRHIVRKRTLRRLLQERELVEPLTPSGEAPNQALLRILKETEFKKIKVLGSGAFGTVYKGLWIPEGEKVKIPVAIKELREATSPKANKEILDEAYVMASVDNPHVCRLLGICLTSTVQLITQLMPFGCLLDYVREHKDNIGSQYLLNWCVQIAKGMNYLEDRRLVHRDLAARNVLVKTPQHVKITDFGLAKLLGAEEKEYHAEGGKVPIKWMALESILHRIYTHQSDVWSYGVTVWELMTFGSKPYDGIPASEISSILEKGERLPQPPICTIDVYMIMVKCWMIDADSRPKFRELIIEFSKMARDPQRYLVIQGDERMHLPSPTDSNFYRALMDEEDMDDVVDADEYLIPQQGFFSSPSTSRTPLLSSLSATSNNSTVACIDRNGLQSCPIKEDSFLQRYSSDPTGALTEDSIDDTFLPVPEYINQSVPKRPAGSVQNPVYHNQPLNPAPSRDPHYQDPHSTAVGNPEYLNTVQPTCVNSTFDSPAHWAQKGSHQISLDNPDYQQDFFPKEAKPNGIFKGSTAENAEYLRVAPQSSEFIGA

Structure (SMILES)	AC50 [1]	half-life ([2]; first session (before /))	half-life ([2]; second session (after /))	IC50 [3]	IC50 [4]	IC50 [5]	IC50 [6]
C=CC(=O)Nc1cc(CN2CCN(C)C(=O)C2)cc(-c2cnc3ccccc3n2)c1 [Compound 1a]	20000 nM	1.07 h	1 h	352 nM	370 nM	231 nM	345 nM
C=CC(=O)Nc1cc(CN2CCNC(=O)C2)cc(-c2cnc3ccccc3n2)c1 [Compound 1b, N-[3-[(3-oxopiperazin-1-yl)methyl]-5-quinoxalin-2-yl-phenyl] prop-2-enamide]	45000 nM	1.25 h	> 1 h	2650 nM	2860 nM	1320 nM	2290 nM
C=CC(=O)Nc1cc(CC(=O)OC)cc(-c2cnc3ccccc3n2)c1 [Compound 2]	18000 nM	> 16.7 h	0.0917 h	–	–	653 nM	–
C=CC(=O)Nc1cc(NS(C)(=O)=O)cc(-c2cnc3ccccc3n2)c1 [Compound 3]	20000 nM	0.967 h	1 h	–	–	1120 nM	–
